Measurements reported in PubChem BioAssay AID1963828 (Molecular Pharmacology Branch, DTP, NCI, 2024).

Test system: 991263-137-R1-J2-PDC complex spheroid viability
Test: Anticancer human tumor 991263-137-R1-J2-PDC patient-derived colon adenocarcinoma cell line growth inhibition [POLQ]
Details: for IC50: curve of first compound; for viability, T/C: stronger effect = lower value
Procedure, shortened: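 Complex spheroid viability model combining PDC tumour cells with endothelial (HUVEC) and MSC stromal cells. Novobiocin, ART-558 or RP6685 were tested singly and in combination with standard and investigational anticancer drugs. Each was titrated in half-log steps from near clinical Cmax, or from 10 microM where Cmax was unknown.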

[1] = second compound 0.0316 µM, first compound 0.0316 µM
[2] = second compound 0.0316 µM, first compound 0.1 µM
[3] = second compound 0.0316 µM, first compound 0.316 µM
[4] = second compound 0.0316 µM, first compound 1 µM
[5] = second compound 0.0316 µM, first compound 3.16 µM
[6] = second compound 0.0316 µM, first compound 10 µM
[7] = second compound 0.1 µM, first compound 0.0316 µM
[8] = second compound 0.1 µM, first compound 0.1 µM
[9] = second compound 0.1 µM, first compound 0.316 µM
[10] = second compound 0.1 µM, first compound 1 µM
[11] = second compound 0.1 µM, first compound 3.16 µM
[12] = second compound 0.1 µM, first compound 10 µM
[13] = second compound 0.316 µM, first compound 0.0316 µM
[14] = second compound 0.316 µM, first compound 0.1 µM
[15] = second compound 0.316 µM, first compound 0.316 µM
[16] = second compound 0.316 µM, first compound 1 µM
[17] = second compound 0.316 µM, first compound 3.16 µM
[18] = second compound 0.316 µM, first compound 10 µM
[19] = second compound 1 µM, first compound 0.0316 µM
[20] = second compound 1 µM, first compound 0.1 µM
[21] = second compound 1 µM, first compound 0.316 µM
[22] = second compound 1 µM, first compound 1 µM
[23] = second compound 1 µM, first compound 3.16 µM
[24] = second compound 1 µM, first compound 10 µM
[25] = second compound 3.16 µM, first compound 0.0316 µM
[26] = second compound 3.16 µM, first compound 0.1 µM
[27] = second compound 3.16 µM, first compound 0.316 µM
[28] = second compound 3.16 µM, first compound 1 µM
[29] = second compound 3.16 µM, first compound 3.16 µM
[30] = second compound 3.16 µM, first compound 10 µM
[31] = second compound 10 µM, first compound 0.0316 µM
[32] = second compound 10 µM, first compound 0.1 µM
[33] = second compound 10 µM, first compound 0.316 µM
[34] = second compound 10 µM, first compound 1 µM
[35] = second compound 10 µM, first compound 3.16 µM
[36] = second compound 10 µM, first compound 10 µM
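Further: spheroids exposed to compounds for 7 days before readout.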
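Wherever viability, T/C is given: 100% = DMSO vehicle control viability.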

CCc1cc2c(N3CCc4c(cc(Cn5ccnc5)cc4-c4cn(C)nc4C(F)(F)F)C3=O)ccnc2c(OC)n1 + Cc1cccc(N(C)C(=O)C2C(O)CCN2c2nc(C)cc(C(F)(F)F)c2C#N)c1
IC50 (second compound 0.0316 µM): > 10 µM | IC50 (second compound 0.1 µM): > 10 µM | IC50 (second compound 0.316 µM): > 10 µM | IC50 (second compound 1 µM): > 10 µM | IC50 (second compound 3.16 µM): > 10 µM | IC50 (second compound 10 µM): > 10 µM | viability, T/C [1]: 95.3% | viability, T/C [2]: 108% | viability, T/C [3]: 107% | viability, T/C [4]: 87.2% | viability, T/C [5]: 82.8% | viability, T/C [6]: 91.7% | viability, T/C [7]: 103% | viability, T/C [8]: 100% | viability, T/C [9]: 97.7% | viability, T/C [10]: 95.9% | viability, T/C [11]: 96.7% | viability, T/C [12]: 88.3% | viability, T/C [13]: 104% | viability, T/C [14]: 96.8% | viability, T/C [15]: 93.4% | viability, T/C [16]: 95.7% | viability, T/C [17]: 100% | viability, T/C [18]: 94.4% | viability, T/C [19]: 105% | viability, T/C [20]: 98.4% | viability, T/C [21]: 110% | viability, T/C [22]: 96% | viability, T/C [23]: 103% | viability, T/C [24]: 92% | viability, T/C [25]: 106% | viability, T/C [26]: 97.5% | viability, T/C [27]: 90.4% | viability, T/C [28]: 96.2% | viability, T/C [29]: 90.3% | viability, T/C [30]: 89% | viability, T/C [31]: 96.6% | viability, T/C [32]: 111% | viability, T/C [33]: 97% | viability, T/C [34]: 89.9% | viability, T/C [35]: 91.4% | viability, T/C [36]: 83%

COc1cc2cc(C(=O)CCC(=O)O)sc2cc1OC + Cc1cccc(N(C)C(=O)C2C(O)CCN2c2nc(C)cc(C(F)(F)F)c2C#N)c1
IC50 (second compound 0.0316 µM): > 10 µM | IC50 (second compound 0.1 µM): > 10 µM | IC50 (second compound 0.316 µM): > 10 µM | IC50 (second compound 1 µM): > 10 µM | IC50 (second compound 3.16 µM): > 10 µM | IC50 (second compound 10 µM): > 10 µM | viability, T/C [1]: 100% | viability, T/C [2]: 103% | viability, T/C [3]: 99.8% | viability, T/C [4]: 95.8% | viability, T/C [5]: 102% | viability, T/C [6]: 81.8% | viability, T/C [7]: 91.5% | viability, T/C [8]: 88.8% | viability, T/C [9]: 95.4% | viability, T/C [10]: 93.6% | viability, T/C [11]: 95.7% | viability, T/C [12]: 77% | viability, T/C [13]: 102% | viability, T/C [14]: 92.8% | viability, T/C [15]: 101% | viability, T/C [16]: 102% | viability, T/C [17]: 97.4% | viability, T/C [18]: 71.2% | viability, T/C [19]: 91.2% | viability, T/C [20]: 103% | viability, T/C [21]: 91.5% | viability, T/C [22]: 88% | viability, T/C [23]: 108% | viability, T/C [24]: 74.2% | viability, T/C [25]: 87.8% | viability, T/C [26]: 94.1% | viability, T/C [27]: 90.3% | viability, T/C [28]: 110% | viability, T/C [29]: 87.2% | viability, T/C [30]: 80% | viability, T/C [31]: 86% | viability, T/C [32]: 97.5% | viability, T/C [33]: 97.9% | viability, T/C [34]: 101% | viability, T/C [35]: 102% | viability, T/C [36]: 81%

COc1ccc([C@@H](O)c2cc(-c3ncnc4cc(N5CCOCC5)ccc34)c(F)cc2Cl)nn1 + Cc1cccc(N(C)C(=O)C2C(O)CCN2c2nc(C)cc(C(F)(F)F)c2C#N)c1
IC50 (second compound 0.0316 µM): 2.6 µM | IC50 (second compound 0.1 µM): 5.78 µM | IC50 (second compound 0.316 µM): 5.97 µM | IC50 (second compound 1 µM): 6.2 µM | IC50 (second compound 3.16 µM): 5.68 µM | IC50 (second compound 10 µM): 3.76 µM | viability, T/C [1]: 101% | viability, T/C [2]: 88.1% | viability, T/C [3]: 93.3% | viability, T/C [4]: 110% | viability, T/C [5]: 40.1% | viability, T/C [6]: 27.1% | viability, T/C [7]: 116% | viability, T/C [8]: 104% | viability, T/C [9]: 98.1% | viability, T/C [10]: 88% | viability, T/C [11]: 76.4% | viability, T/C [12]: 29.3% | viability, T/C [13]: 103% | viability, T/C [14]: 103% | viability, T/C [15]: 84.9% | viability, T/C [16]: 87.5% | viability, T/C [17]: 68.9% | viability, T/C [18]: 34.9% | viability, T/C [19]: 99.5% | viability, T/C [20]: 114% | viability, T/C [21]: 75.2% | viability, T/C [22]: 89% | viability, T/C [23]: 76.3% | viability, T/C [24]: 33.1% | viability, T/C [25]: 97.5% | viability, T/C [26]: 92.8% | viability, T/C [27]: 77.9% | viability, T/C [28]: 79.5% | viability, T/C [29]: 75.5% | viability, T/C [30]: 29.4% | viability, T/C [31]: 85.3% | viability, T/C [32]: 117% | viability, T/C [33]: 86% | viability, T/C [34]: 90.5% | viability, T/C [35]: 53.2% | viability, T/C [36]: 30%

O=C(Nc1ccc(O)c(NS(=O)(=O)c2ccc(F)cc2)c1)c1ccc(-c2ccccc2)cc1 + Cc1cccc(N(C)C(=O)C2C(O)CCN2c2nc(C)cc(C(F)(F)F)c2C#N)c1
IC50 (second compound 0.0316 µM): > 10 µM | IC50 (second compound 0.1 µM): > 10 µM | IC50 (second compound 0.316 µM): > 10 µM | IC50 (second compound 1 µM): > 10 µM | IC50 (second compound 3.16 µM): > 10 µM | IC50 (second compound 10 µM): > 10 µM | viability, T/C [1]: 103% | viability, T/C [2]: 99.6% | viability, T/C [3]: 90.9% | viability, T/C [4]: 101% | viability, T/C [5]: 87.2% | viability, T/C [6]: 92% | viability, T/C [7]: 96.8% | viability, T/C [8]: 95.7% | viability, T/C [9]: 113% | viability, T/C [10]: 94.8% | viability, T/C [11]: 99% | viability, T/C [12]: 91% | viability, T/C [13]: 98.3% | viability, T/C [14]: 97.5% | viability, T/C [15]: 103% | viability, T/C [16]: 80.9% | viability, T/C [17]: 99.6% | viability, T/C [18]: 86.5% | viability, T/C [19]: 99.2% | viability, T/C [20]: 99% | viability, T/C [21]: 106% | viability, T/C [22]: 94.2% | viability, T/C [23]: 103% | viability, T/C [24]: 80.1% | viability, T/C [25]: 96.4% | viability, T/C [26]: 96.2% | viability, T/C [27]: 95.2% | viability, T/C [28]: 109% | viability, T/C [29]: 105% | viability, T/C [30]: 85.8% | viability, T/C [31]: 93.7% | viability, T/C [32]: 95.9% | viability, T/C [33]: 90.5% | viability, T/C [34]: 96.8% | viability, T/C [35]: 105% | viability, T/C [36]: 87.5%
